Columns and labels:
GrhO5 [1] = biological target: T1, GrhO5 (Streptomyces sp. JP95, UniProt Q8KSX7); test: X-ray crystal structure, […] Å; format: binding; conditions: ligand-free acceptor state, FAD in OUT
T1 construct: crystallised; domains I-III, residues 1-537 described; construct details only in supplement
T1 sequence (Q8KSX7 1-537): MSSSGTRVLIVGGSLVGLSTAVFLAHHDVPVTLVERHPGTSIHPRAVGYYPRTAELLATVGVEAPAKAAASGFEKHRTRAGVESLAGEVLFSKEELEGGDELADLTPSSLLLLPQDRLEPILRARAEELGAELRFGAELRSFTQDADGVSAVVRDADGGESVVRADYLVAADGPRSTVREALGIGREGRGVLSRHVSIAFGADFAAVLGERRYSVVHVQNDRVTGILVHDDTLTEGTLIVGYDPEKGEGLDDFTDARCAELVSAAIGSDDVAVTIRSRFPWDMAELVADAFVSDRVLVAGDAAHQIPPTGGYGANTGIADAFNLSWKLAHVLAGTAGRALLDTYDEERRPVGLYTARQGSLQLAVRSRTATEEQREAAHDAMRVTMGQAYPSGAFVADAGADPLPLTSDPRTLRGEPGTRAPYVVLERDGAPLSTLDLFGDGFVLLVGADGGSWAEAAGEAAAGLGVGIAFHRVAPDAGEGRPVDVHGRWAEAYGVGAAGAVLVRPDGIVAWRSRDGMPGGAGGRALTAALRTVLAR

GrhO5 [2] = biological target: T1, GrhO5; test: X-ray crystal structure, crystals soaked with […]; format: binding; conditions: FAD in OUT, reducible state; bound ligand may be 3 or its reduced form 5 (dihydrocollinone)

Compound | X-ray crystal structure, 1.75 Å (GrhO5 [1]) | X-ray crystal structure, crystals soaked with 3 (GrhO5 [2])
Cc1cc2nc3c(=O)[nH]c(=O)nc-3n(C[C@H](O)[C@H](O)[C@H](O)COP(=O)(O)OP(=O)(O)OC[C@H]3O[C@@H](n4cnc5c(N)ncnc54)[C@H](O)[C@@H]3O)c2cc1C [FAD] | domains I and II are essential for FAD‐ and substrate binding, respectively | –
COc1cc(=O)c2c(=O)c3c(c(=O)c=2c1=O)=C(O)[C@@]1(O)c2c(cc4cc(C)oc(=O)c4c2O)CC[C@@]1(O)C=3O [compound 3, collinone] | – | revealed clear electron density in the open, solvent‐exposed substrate‐binding site
